Measured values taken from patent US20190223483A1, “SENSORY MODIFIER COMPOUNDS” (CARGILL, INCORPORATED, priority 2017, published 2019).

Key:
[1] = Overall sweetness quality preference; format: in vivo; set-up: key: ! = preferred; !! = very preferred; !!! = most preferred
Experimental: A series of assays were carried out to determine overall sweetness quality preference for steviol glycoside with sensory modifier compound. Solutions of steviol glycosides and sensory modifier compound were prepared at varying concentrations of steviol glycoside and sensory modifier compound. The steviol glycoside was RebM and the sensory modifier compound was monocaffeoylquinic and dicaffeoylquinic acids prepared from yerba mate. The concentration of steviol glycosides was between 0 ppm and 1600 ppm. The concentration of sensory modifier compound was between 0 ppm and 1600 ppm. The solutions were tested for overall sweetness quality preference (!=preferred, !!=very preferred, and !!!=most preferred).

[2] = Roundtable assessment of bitterness (scale 0 to 6); format: in vivo; set-up: key: 0 = none; 1 = trace/faint; 2 = slight; 3 = moderate; 4 = definite; 5 = strong; 6 = extreme

With `C=C1C[C@@]23CC[C@H]4[C@@](C)(CCC[C@@]4(C)C(=O)O[C@@H]4O[C@H](CO)[C@@H](O)[C@H](O[C@@H]5O[C@H](CO)[C@@H](O)[C@H](O)[C@H]5O)[C@H]4O[C@@H]4O[C@H](CO)[C@@H](O)[C@H](O)[C@H]4O)[C@@H]2CC[C@]1(O[C@@H]1O[C@H](CO)[C@@H](O)[C@H](O[C@@H]2O[C@H](CO)[C@@H](O)[C@H](O)[C@H]2O)[C@H]1O[C@@H]1O[C@H](CO)[C@@H](O)[C@H](O)[C@H]1O)C3` [RebM, Rebaudioside M] the “Sweetness Quality preferred” value ([1]; quinic acid backbone modifier 400 ppm, RebM 600 ppm) was “!!”, the “Sweetness Quality preferred” value ([1]; quinic acid backbone modifier 400 ppm, RebM 700 ppm) was “!!” and the “Sweetness Quality preferred” value ([1]; quinic acid backbone modifier 500 ppm, RebM 600 ppm) was “!”. The “Sweetness Quality preferred” value ([1]; quinic acid backbone modifier 500 ppm, RebM 700 ppm) was “!!!”, the “Sweetness Quality preferred” value ([1]; quinic acid backbone modifier 600 ppm, RebM 400 ppm) was “!” and the “Sweetness Quality preferred” value ([1]; quinic acid backbone modifier 600 ppm, RebM 700 ppm) was “!”. For the same molecule, the “Sweetness Quality preferred” value ([1]; quinic acid backbone modifier 700 ppm, RebM 800 ppm) was “!!”, the “Sweetness Quality preferred” value ([1]; quinic acid backbone modifier 800 ppm, RebM 400 ppm) was “!” and the “Sweetness Quality preferred” value ([1]; quinic acid backbone modifier 800 ppm, RebM 600 ppm) was “!”. The “Sweetness Quality preferred” value ([1]; quinic acid backbone modifier 800 ppm, RebM 700 ppm) was “!”, the Bitterness ([2]; RebM 700 ppm + cichoric acid (tartaric backbone) 514 ppm) was 0 and the Bitterness ([2]; RebM 700 ppm + rosmarinic acid 586 ppm) was 0.
